Experimental data: ChEMBL document CHEMBL1681693, “Synthesis and SAR of centrally active mGlu5 positive allosteric modulators based on an aryl acetylenic bicyclic lactam scaffold” (Bioorg Med Chem Lett, 2011)
Calls of active or inactive are those of the source. No cut-off for these calls is given here.

Assays:
[1] = target: T1, Metabotropic glutamate receptor 5 (Homo sapiens, UniProt P41594); experiment: Positive allosteric modulation of mGlu5 receptor assessed as calcium mobilization; format: functional
Target sequence in this assay (P41594 whole entry): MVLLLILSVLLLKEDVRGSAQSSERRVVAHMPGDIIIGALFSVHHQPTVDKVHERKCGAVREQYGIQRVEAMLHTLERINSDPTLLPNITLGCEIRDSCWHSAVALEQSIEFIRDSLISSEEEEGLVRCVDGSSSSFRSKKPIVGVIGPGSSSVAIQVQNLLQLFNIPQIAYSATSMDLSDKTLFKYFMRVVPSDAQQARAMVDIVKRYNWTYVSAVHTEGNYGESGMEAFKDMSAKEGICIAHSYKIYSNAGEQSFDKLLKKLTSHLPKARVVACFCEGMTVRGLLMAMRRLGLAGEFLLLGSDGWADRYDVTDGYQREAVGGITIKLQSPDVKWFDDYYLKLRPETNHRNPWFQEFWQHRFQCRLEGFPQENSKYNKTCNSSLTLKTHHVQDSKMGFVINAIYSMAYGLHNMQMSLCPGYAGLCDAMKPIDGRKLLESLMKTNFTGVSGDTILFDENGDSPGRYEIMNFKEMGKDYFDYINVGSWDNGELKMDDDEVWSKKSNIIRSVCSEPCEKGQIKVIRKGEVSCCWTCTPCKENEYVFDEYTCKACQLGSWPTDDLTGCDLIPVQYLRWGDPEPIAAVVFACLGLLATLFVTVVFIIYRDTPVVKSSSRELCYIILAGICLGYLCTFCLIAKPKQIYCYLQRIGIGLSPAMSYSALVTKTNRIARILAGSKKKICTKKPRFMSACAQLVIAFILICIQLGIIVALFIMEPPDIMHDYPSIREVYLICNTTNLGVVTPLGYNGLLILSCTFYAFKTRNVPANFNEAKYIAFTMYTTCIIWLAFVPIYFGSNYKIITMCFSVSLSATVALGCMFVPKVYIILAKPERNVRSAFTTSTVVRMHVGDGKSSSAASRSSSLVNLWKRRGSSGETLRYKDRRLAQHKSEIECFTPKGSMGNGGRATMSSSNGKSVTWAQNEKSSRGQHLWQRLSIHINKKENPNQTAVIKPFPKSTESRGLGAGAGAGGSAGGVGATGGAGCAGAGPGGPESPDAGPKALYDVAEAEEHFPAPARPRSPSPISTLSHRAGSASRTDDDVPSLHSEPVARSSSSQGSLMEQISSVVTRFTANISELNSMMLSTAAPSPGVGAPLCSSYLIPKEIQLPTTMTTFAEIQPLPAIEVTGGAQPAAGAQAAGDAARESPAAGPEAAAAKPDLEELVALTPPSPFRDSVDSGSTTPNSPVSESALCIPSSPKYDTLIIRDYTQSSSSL

[2] = target: T1, Metabotropic glutamate receptor 5; experiment: Positive allosteric modulation of mGlu5 receptor assessed as calcium mobilization at 30 uM relative to glutamate; format: functional
Target sequence in this assay (P41594 21-1212 limits assumed): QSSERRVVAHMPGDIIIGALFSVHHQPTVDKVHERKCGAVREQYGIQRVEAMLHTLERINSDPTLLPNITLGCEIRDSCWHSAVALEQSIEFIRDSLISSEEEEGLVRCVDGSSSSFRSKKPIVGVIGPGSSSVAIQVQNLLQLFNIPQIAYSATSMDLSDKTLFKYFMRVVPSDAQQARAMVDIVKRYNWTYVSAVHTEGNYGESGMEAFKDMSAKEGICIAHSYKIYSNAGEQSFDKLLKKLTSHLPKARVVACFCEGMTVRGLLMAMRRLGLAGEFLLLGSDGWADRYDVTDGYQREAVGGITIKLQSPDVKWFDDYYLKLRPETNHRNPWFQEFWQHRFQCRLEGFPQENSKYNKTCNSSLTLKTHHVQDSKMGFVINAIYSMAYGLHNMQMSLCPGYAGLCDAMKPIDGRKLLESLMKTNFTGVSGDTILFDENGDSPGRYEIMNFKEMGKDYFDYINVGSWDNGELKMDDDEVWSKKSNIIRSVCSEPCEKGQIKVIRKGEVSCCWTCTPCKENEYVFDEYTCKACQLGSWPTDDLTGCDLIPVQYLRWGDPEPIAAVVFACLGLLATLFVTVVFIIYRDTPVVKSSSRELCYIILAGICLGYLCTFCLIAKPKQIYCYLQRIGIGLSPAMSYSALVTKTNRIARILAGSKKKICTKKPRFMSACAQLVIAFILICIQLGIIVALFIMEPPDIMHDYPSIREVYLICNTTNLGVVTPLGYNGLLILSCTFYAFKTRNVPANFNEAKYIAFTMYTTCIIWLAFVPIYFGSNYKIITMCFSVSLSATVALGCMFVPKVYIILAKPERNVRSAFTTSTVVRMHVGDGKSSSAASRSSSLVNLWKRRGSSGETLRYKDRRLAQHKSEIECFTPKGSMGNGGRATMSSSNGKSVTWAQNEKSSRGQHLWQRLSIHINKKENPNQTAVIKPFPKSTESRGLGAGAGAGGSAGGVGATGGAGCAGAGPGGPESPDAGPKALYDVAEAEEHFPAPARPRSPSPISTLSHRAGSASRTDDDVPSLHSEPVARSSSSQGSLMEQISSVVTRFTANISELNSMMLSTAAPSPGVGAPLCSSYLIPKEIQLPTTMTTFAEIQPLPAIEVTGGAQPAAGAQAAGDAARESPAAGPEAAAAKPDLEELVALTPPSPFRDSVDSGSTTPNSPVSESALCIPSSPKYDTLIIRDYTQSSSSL

Rattus norvegicus = experiment: Antipsychotic activity in rat assessed as reversal of amphetamine-induced hyperlocomotion at 30 mg/kg, ip; format: functional, organism-based; parameters: dose 30 mg/kg
[3] = target: T1, Metabotropic glutamate receptor 5; experiment: Antagonist activity against mGlu5 receptor assessed as inhibition of calcium mobilization
Target sequence in this assay (P41594 whole entry): as the sequence (P41594 whole entry) above

## O=C1NC(=O)c2cc(C#Cc3ccc(F)c(F)c3)ccc21
[1]
  EC50: 170 nM
[2]
  Activity: 84%

## O=C1c2ccc(C#Cc3ccccc3)cc2CCN1CC1CC1
[1]
  EC50: 180 nM
[2]
  Activity: 69%
Rattus norvegicus
  Activity: Active

## O=C1NCc2cc(C#Cc3ccccc3F)ccc21
[1]
  EC50: 200 nM
[2]
  Activity: 67%

## O=C1NCc2cc(C#Cc3cccc(F)c3)ccc21
[1]
  EC50: 66 nM
[2]
  Activity: 71%

## O=C1c2ccc(C#Cc3ccccc3)cc2CCN1Cc1ccccc1
[1]
  EC50: 550 nM
[2]
  Activity: 90%

## CCCCN1CCc2nc(C#Cc3cccc(F)c3)ccc2C1=O
[1]
  EC50: 56 nM
[2]
  Activity: 46%

## O=C1NC(=O)c2cc(C#Cc3ccc(F)cc3)ccc21
[1]
  EC50: 160 nM
[2]
  Activity: 88%

## O=C1NC(=O)c2cc(C#Cc3cccc(F)c3)ccc21
[1]
  EC50: 35 nM
[2]
  Activity: 99%

## O=C1NCCc2cc(C#Cc3ccc(F)cc3)ccc21
[1]
  EC50: 260 nM
[2]
  Activity: 81%

## O=C1NCCc2nc(C#Cc3cccc(F)c3)ccc21
[1]
  EC50: 290 nM
[2]
  Activity: 72%

## CN1CCc2cc(C#Cc3ccccc3)ccc2C1=O
[1]
  EC50: 250 nM
[2]
  Activity: 53%

## Cc1cccc(C#Cc2ccc3c(c2)CCNC3=O)c1
[1]
  EC50: 170 nM
[2]
  Activity: 76%

## O=C1c2ccc(C#Cc3ccccc3)cc2CCN1CCN1CCOCC1
[1]
  EC50: 3600 nM
[2]
  Activity: 84%

## O=C1c2ccc(C#Cc3cccc(F)c3)nc2CCN1CC1CC1
[3]
  IC50: 660 nM

## O=C1NC(=O)c2cc(C#Cc3ccccc3F)ccc21
[1]
  EC50: 12 nM
[2]
  Activity: 93%

## CCCN1CCc2cc(C#Cc3ccccc3)ccc2C1=O
[1]
  EC50: 160 nM
[2]
  Activity: 97%
Rattus norvegicus
  Activity: Active

## O=C1c2ccc(C#Cc3ccccc3)cc2C(=O)N1CCc1ccncc1
[1]
  EC50: 900 nM
[2]
  Activity: 76%

## O=C1c2ccc(C#Cc3ccccc3)cc2C(=O)N1CCN1CCOCC1
[1]
  EC50: 5700 nM
[2]
  Activity: 44%

## O=C1NCc2cc(C#Cc3ccccc3)ccc21
[2]
  Activity: 69%

## O=C1c2ccc(C#Cc3cccc(F)c3)nc2CCN1CC1CCC1
[1]
  EC50: 130 nM
[2]
  Activity: 53%

## CCCCN1CCc2cc(C#Cc3ccccc3)ccc2C1=O
[1]
  EC50: 96 nM
[2]
  Activity: 97%

## O=C1NCCc2cc(C#Cc3ccc(Cl)cc3)ccc21
[1]
  EC50: > 10000 nM

## O=C1NCCc2cc(C#Cc3ccc(F)cc3F)ccc21
[1]
  EC50: 850 nM
[2]
  Activity: 59%

## O=C1NCCc2cc(C#Cc3ccccc3Cl)ccc21
[1]
  EC50: 3700 nM
[2]
  Activity: 50%

## O=C1c2ccc(C#Cc3ccccc3)cc2CCN1CCN1CCC1
[1]
  EC50: 4000 nM
[2]
  Activity: 77%

## O=C(c1ccc(C#Cc2ccccc2)cc1)N1CCC(O)CC1
[1]
  EC50: 10 nM
[2]
  Activity: 72%

## O=C1c2ccc(C#Cc3ccccc3)cc2C(=O)N1CCc1ccccn1
[1]
  EC50: 870 nM
[2]
  Activity: 40%

## CC(C)CN1CCc2nc(C#Cc3cccc(F)c3)ccc2C1=O
[1]
  EC50: 54 nM
[2]
  Activity: 40%

## O=C1NCCc2cc(C#Cc3cccc(Cl)c3)ccc21
[1]
  EC50: 470 nM
[2]
  Activity: 68%

## O=C1c2ccc(C#Cc3ccccc3)cc2CCN1CC1CCC1
[1]
  EC50: 270 nM
[2]
  Activity: 91%

## COc1ccc(C#Cc2ccc3c(c2)CCNC3=O)cc1
[1]
  EC50: > 10000 nM

## CN1CCc2nc(C#Cc3cccc(F)c3)ccc2C1=O
[3]
  IC50: 170 nM

## O=C1NCCc2cc(C#Cc3ccccc3)ccc21
Rattus norvegicus
  Activity: Active

## O=C1NCCc2cc(C#Cc3ccccc3F)ccc21
[1]
  EC50: 150 nM
[2]
  Activity: 80%

## Cc1ccccc1C#Cc1ccc2c(c1)CCNC2=O
[1]
  EC50: 610 nM
[2]
  Activity: 53%

## Cc1cc(C#Cc2ccc3c(c2)CCNC3=O)ccc1F
[1]
  EC50: 4900 nM
[2]
  Activity: 53%

## O=C1NCc2cc(C#Cc3ccc(F)cc3)ccc21
[1]
  EC50: 350 nM
[2]
  Activity: 60%

## O=C(NC1CCC1)c1ccc(C#Cc2cccc(F)c2)nc1
[1]
  EC50: 16 nM
[2]
  Activity: 87%

## COc1cccc(C#Cc2ccc3c(c2)CCNC3=O)c1
[1]
  EC50: 3400 nM
[2]
  Activity: 58%
